This experiment can be described thus: Antiproliferative activity against VEGF-stimulated HUVEC cells assessed as reduction in cell viability at 10 nM preincubated for 1 hr followed by addition of VEGF measured after 72 hrs by MTT assay. It counts as functional. The note with it: Homo sapiens. Background: Tetrazolium dyes change colour on reduction, which living cells bring about.
For `CC(C)c1ccccc1C(=O)Nc1cccc(Oc2ccc3c(/C=C/c4ccccc4)n[nH]c3c2)c1`, the inhibition (usually the relative decrease from the control value, in per cent) at 0.01 µM amounted to 35%.
With `O=C(Nc1cccc(Oc2ccc3c(/C=C/c4ccccc4)n[nH]c3c2)c1)C1CC2C=CCC(C2)C1` (stereo not drawn) the figure was 17%.
With `CCO/C(C)=C/C(=O)Nc1cccc(C(=O)c2ccc3c(/C=C/c4ccccc4)n[nH]c3c2)c1` the figure was 72%; with `COc1cccc(CC(=O)Nc2cccc(Oc3ccc4c(/C=C/c5ccccc5)n[nH]c4c3)c2)c1`, 86%; with `COc1cccc(/C=C/C(=O)Nc2cccc(Nc3ccc4c(/C=C/c5ccccc5)n[nH]c4c3)c2)c1`, 30%.
As for `O=C(/C=C/C1C[C@H]2C=C[C@H]1C2)Nc1cccc(C(=O)c2ccc3c(/C=C/c4ccccc4)n[nH]c3c2)c1` (stereo partly drawn), the figure is 37%; as for `O=C(/C=C/C1C[C@H]2C=C[C@H]1C2)Nc1cccc(Oc2ccc3c(/C=C/c4ccccc4)n[nH]c3c2)c1` (stereo partly drawn), 48%; as for `CC(=O)c1ccc(C(=O)Nc2cccc(Nc3ccc4c(/C=C/c5ccccc5)n[nH]c4c3)c2)s1`, 78%.
In the case of `O=C(c1cccc(NC(=O)C2C[C@H]3C[C@@H]2CCC3O)c1)c1ccc2c(/C=C/c3ccccc3)n[nH]c2c1` (stereo partly drawn), the inhibition at 0.01 µM was determined as 27%.
As for `O=C1C[C@H](C(=O)Nc2cccc(C(=O)c3ccc4c(/C=C/c5ccccc5)n[nH]c4c3)c2)NC(=O)N1`, the figure is -36%; as for `C[C@@H](CC(=O)Nc1cccc(C(=O)c2ccc3c(/C=C/c4ccccc4)n[nH]c3c2)c1)c1ccccc1`, 52%.
As for `O=C1CC[C@H](C(=O)Nc2cccc(Nc3ccc4c(/C=C/c5ccccc5)n[nH]c4c3)c2)N1`, the figure is 20%; as for `O=C(CCC(=O)N1CCCC1)Nc1cccc(C(=O)c2ccc3c(/C=C/c4ccccc4)n[nH]c3c2)c1`, 27%; as for `O=C(Cc1c(F)cccc1F)Nc1cccc(Oc2ccc3c(/C=C/c4ccccc4)n[nH]c3c2)c1`, 93%.
On to `CN1CCC=C(C(=O)Nc2cccc(Oc3ccc4c(/C=C/c5ccccc5)n[nH]c4c3)c2)C1`, for which the inhibition at 0.01 µM was determined as 43%.
Take `CCO/C(C)=C/C(=O)Nc1cccc(Oc2ccc3c(/C=C/c4ccccc4)n[nH]c3c2)c1`: the inhibition at 0.01 µM worked out at 87%.
With `C[C@@H]1[C@H](C)[C@H](C)C[C@@H]1C(=O)Nc1cccc(Nc2ccc3c(/C=C/c4ccccc4)n[nH]c3c2)c1` the figure was 7%; with `CC(C)(C)c1ccc(C(=O)Nc2cccc(C(=O)c3ccc4c(/C=C/c5ccccc5)n[nH]c4c3)c2)o1`, 71%; with `O=C(Nc1cccc(Nc2ccc3c(/C=C/c4ccccc4)n[nH]c3c2)c1)C1CCOC1` (stereo not drawn), -3%.
With `O=C(Cc1cc(F)ccc1F)Nc1cccc(Nc2ccc3c(/C=C/c4ccccc4)n[nH]c3c2)c1` the figure was 64%.
With `CN(C)CCCC(=O)Nc1cccc(C(=O)c2ccc3c(/C=C/c4ccccc4)n[nH]c3c2)c1`, the inhibition at 0.01 µM was determined as 24%.
With `O=C(Nc1cccc(Oc2ccc3c(/C=C/c4ccccc4)n[nH]c3c2)c1)C1C[C@H]2C=C[C@H]1C2` (stereo partly drawn), the inhibition at 0.01 µM was found to be 82%.
With `Cc1ccc(C2(C(=O)Nc3cccc(Nc4ccc5c(/C=C/c6ccccc6)n[nH]c5c4)c3)CC2)cc1` the figure was 2%; with `O=C(Nc1cccc(Nc2ccc3c(/C=C/c4ccccc4)n[nH]c3c2)c1)c1cccc2[nH]ccc12`, 94%.
`O=C(c1cccc(NC(=O)c2cccc3cc[nH]c23)c1)c1ccc2c(/C=C/c3ccccc3)n[nH]c2c1`: the inhibition at 0.01 µM amounted to 58%.
With `O=C(CCN1CCCCC1)Nc1cccc(Nc2ccc3c(/C=C/c4ccccc4)n[nH]c3c2)c1` the figure was 30%; with `O=C1CC[C@H](C(=O)Nc2cccc(C(=O)c3ccc4c(/C=C/c5ccccc5)n[nH]c4c3)c2)N1`, 32%; with `Cc1cc(C(=O)Nc2cccc(Oc3ccc4c(/C=C/c5ccccc5)n[nH]c4c3)c2)oc(=O)c1`, 83%.

The values above are taken from ChEMBL document CHEMBL3880421, “Indazole compounds and pharmaceutical compositions for inhibiting protein kinases, and methods for their use” (2003).
